Experimental data: US10857105B2, “Compounds and compositions for intracellular delivery of therapeutic agents” (ModernaTX, Inc., priority 2017, dated 2020)
Each block holds one molecule with its values, some of them ahead of it.

Legend:
luciferase (Luc) mRNA [1] = experiment: Luciferase expression after intramuscular administration to mice; type: in vivo; details: for Novel lipid/MC3 expression ratio, i.m. Luc: 6 hr. time point, relative to MC3 formulation
Outline: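 CD-1 mice received lipid nanoparticle formulations of modified luciferase mRNA intramuscularly at 0.01 mpk. Bioluminescence total flux was measured, including at 6 h, and AUC was expressed relative to MC3 formulations. Immunogenicity was assessed in parallel.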

hEPO mRNA = experiment: hEPO expression after intramuscular administration to mice; type: in vivo; details: for Novel lipid/MC3 ratio, i.m. hEPO: Table 3G, intramuscular, 6 hr. timepoint, relative to MC3
Protocol: The numbers 1-11 in this figure correspond to MC3, Compounds 18, 25, 30, 108-112, 60, and 122 respectively.
The expression of hEPO and cytokine induction in mice intravenously administered a nanoparticle composition at a dose of 0.5 mpk were measured at 3, 6, and 24 hours. […] The expression of hEPO in mice intramuscularly administered a nanoparticle composition from Table 1B at a dose of 0.01 mpk were measured at 3, 6, and 24 hours. […] (see

luciferase (Luc) mRNA [2] = experiment: Luciferase expression (whole body bioluminescence) after intravenous administration to mice; type: in vivo; details: for Total Flux 3 hours / Total Flux 6 hours / Total Flux 24 hours: mice (n=6), 0.5 mg/kg; for Total Flux 3 hours / Total Flux 6 hours / Total Flux 24 hours / Novel lipid/MC3 expression ratio, i.v. / Fold increase in Luc expression over MC3 upon intravenous administration: intravenous; for Novel lipid/MC3 expression ratio, i.v.: luciferase, 6 hr. time point, relative to MC3 formulation; for Fold increase in Luc expression over MC3 upon intravenous administration: higher doses than the intramuscular data
Outline: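 Luc mRNA nanoparticles were given IV at 0.5 mg/kg to groups of six mice, and whole-body bioluminescent flux was imaged 3, 6 and 24 h post-dose. Flux AUC for each lipid formulation was reported as a ratio to the MC3 reference formulation.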

[3] = Chemical stability of lipids in ethanol at room temperature and 37° C. (lipid purity); type: physicochemical
Protocol: Ester linkages were previously reported to trigger metabolism by esterases in vivo. (See Fukami, T. et al. Drug Metab. Pharmacokinet. 2012, 27, 466-477, the content of which is incorporated by reference herein in its entirety). […] (See Maier M. A., Mol. Ther. 2013, 21, 1570-1578, the content of which is incorporated herein in its entirety) First, the chemical stability of the lipids was evaluated by measuring ethanol stability at room temperature and 37° C. (Table 39). […] LNPs formed with compound 138 were larger, with a surface pKa>7. […] Removal of one ester function (compound 136) afforded LNPs with improved physiochemical characteristics and lower LNP surface pKa.

[4] = luciferase, intramuscular administration (Table 3H)
[5] = intravenous administration (Table 3D)

Molecule: CCCCCC=CCC=CCCCCCCCCC(CCCCCCCCC=CCC=CCCCCC)OC(=O)CCCN(C)C (stereo not shown) [MC3, heptatriaconta-6,9,28,31-tetraen-19-yl 4-(dimethylamino)butanoate, reference compound]
Total flux 6 hours after intramuscular administration, 0.01 mpk Dose (luciferase (Luc) mRNA [1]; Luc mRNA, intramuscular, 0.01 mpk, 6 hours): 3.23E+07 p/s
AUC (luciferase (Luc) mRNA [1]; [4]): 5.88E+08 p/s*h
Lipid/MC3 AUC (luciferase (Luc) mRNA [1]; [4]): 1
Fold increase in hEPO concentration relative to MC3 (hEPO mRNA; mice, intramuscular 0.01 mpk, 6 hr time point): 1
Lipid/MC3 Luc expression (luciferase (Luc) mRNA [2]; 0.5 mpk dose to mouse, 6 hours after administration): 1
Average total flux (6 h, ffluc) (luciferase (Luc) mRNA [2]; 6 h, ffluc): 6.59 × 10^9
Fold increase in average total flux relative to MC3 (luciferase (Luc) mRNA [2]; 6 h, ffluc): 1
AUC (luciferase (Luc) mRNA [2]; i.v. administration (Table 3C)): 8.24E+10 h*p/s
Fold increase AUC Lipid/MC3 (luciferase (Luc) mRNA [2]; i.v. administration (Table 3C)): 1
Fold increase in total body Luc Flux relative to MC3 at 6 h (luciferase (Luc) mRNA [2]; i.v. administration, 6 h): 1.00
6 h Lipid/MC3 Avg. Luc Expression (luciferase (Luc) mRNA [2]; i.v. administration, 6 h (Table 3C)): 1
AUC (luciferase (Luc) mRNA [2]; [5]): 1.909E+011 p/s*h
Lipid/MC3 AUC (luciferase (Luc) mRNA [2]; [5]): 1
Total Flux 3 hours (luciferase (Luc) mRNA [2]): 1.58E+10
Total Flux 6 hours (luciferase (Luc) mRNA [2]): 2.12E+10
Total Flux 24 hours (luciferase (Luc) mRNA [2]): 7.19E+08

Molecule: CCCCCCCCC(C)OC(=O)CCCCCCCN(CCO)CCCCCCCC(=O)OC(CCCCCCCC)CCCCCCCC (stereo not shown) [Compound 48, decan-2-yl 8-((8-(heptadecan-9-yloxy)-8-oxooctyl)(2-hydroxyethyl)amino)octanoate]
Novel lipid/MC3 expression ratio, i.m. Luc (luciferase (Luc) mRNA [1]; intramuscular, luciferase): 0.31
Novel lipid/MC3 expression ratio, i.v. (luciferase (Luc) mRNA [2]): 10.0

Lipid Purity, t = 96 h, 25° C. [3]: 96.23%
Lipid Purity, t = 96 h, 37° C. [3]: 96.13%
Lipid Purity, t = 0 [3]: 95.58%
Molecule: CCCCCCCCCCCOC(=O)CCCCCN(CCO)CCCCCCCC(=O)OC(CCCCCCCC)CCCCCCCC [Compound 25, Heptadecan-9-yl 8-((2-hydroxyethyl)(6-oxo-6-(undecyloxy)hexyl)amino)octanoate]
Novel lipid/MC3 ratio, i.m. hEPO (hEPO mRNA): 7.1

Molecule: CCCCCCCCCOC(=O)CCCN(CCO)CCCCCCCC(=O)OC(CCCCCCCC)CCCCCCCC [Compound 26, Heptadecan-9-yl 8-((2-hydroxyethyl)(4-(nonyloxy)-4-oxobutyl)amino) octanoate]
Lipid Purity, t = 96 h, 25° C. [3]: 97.38%
Lipid Purity, t = 96 h, 37° C. [3]: 95.72%
Lipid Purity, t = 0 [3]: 98.64%
Fold increase in Luc expression over MC3 upon intravenous administration (luciferase (Luc) mRNA [2]): highest fold increase

Molecule: Nonyl 8-((6-(heptadecan-9-yloxy)-6-oxohexyl)(2-hydroxyethyl)amino) octanoate [Compound 27]
Novel lipid/MC3 expression ratio, i.m. Luc (luciferase (Luc) mRNA [1]; intramuscular, luciferase): 3.94
Fold increase in total body Luc Flux relative to MC3 at 6 h (luciferase (Luc) mRNA [2]; i.v. administration, 6 h): 0.31
Novel lipid/MC3 expression ratio, i.v. (luciferase (Luc) mRNA [2]): 0.31
Total Flux 3 hours (luciferase (Luc) mRNA [2]): 1.64E+10
Total Flux 6 hours (luciferase (Luc) mRNA [2]): 1.03E+10
Total Flux 24 hours (luciferase (Luc) mRNA [2]): 1.94E+09

Molecule: CCCCCCCCCOC(=O)CCCCCCCN(CCO)CCCCCCCC(=O)OC(CCCCCCCC)CCCCCCCC [Compound 18, Heptadecan-9-yl 8-((2-hydroxyethyl)(8-(nonyloxy)-8-oxooctyl)amino)octanoate]
Lipid Purity, t = 96 h, 25° C. [3]: 94.71%
Lipid Purity, t = 96 h, 37° C. [3]: 95.01%
Lipid Purity, t = 0 [3]: 94.37%
Novel lipid/MC3 expression ratio, i.m. Luc (luciferase (Luc) mRNA [1]; intramuscular, luciferase): 2.01
Fold increase in Luc expression over MC3 upon intravenous administration (luciferase (Luc) mRNA [2]): highest fold increase

Molecule: CCCCCC/C=C\COC(=O)CCCCCCCN(CCO)CCCCCCCC(=O)OC(CCCCCCCC)CCCCCCCC [Compound 24, Heptadecan-9-yl (Z)-8-((2-hydroxyethyl) (8-(non-2-en-1-yloxy)-8-oxooctyl)amino)octanoate]
Novel lipid/MC3 ratio, i.m. Luc (luciferase (Luc) mRNA [1]; Table 3G, intramuscular, luciferase, 6 hr. timepoint, relative to MC3): 1.10
Novel lipid/MC3 expression ratio, i.m. Luc (luciferase (Luc) mRNA [1]; intramuscular, luciferase): 1.10

Molecule: CCCCCCCCCOC(=O)CCCCCCCN(CCO)CCCCCCCOC(=O)C(CCCCCCCC)CCCCCCCC [Compound 30, 7-((2-Hydroxyethyl)(8-(nonyloxy)-8-oxooctyl)amino)heptyl 2-octyldecanoate]
Novel lipid/MC3 ratio, i.m. hEPO (hEPO mRNA): 9.2
